Test results taken from US8399214B2 (Evonik Degussa GmbH, priority 2005, dated 2013).
“And” between values parts separate entries of the source, which are not always exact repeats. Equal values may be shown once. Read-outs that look alike come from different tables or passages of the source.

Columns and labels:
[1] = system: C. glutamicum M2014 (parent); assay: Test tube growth in methionine-free medium, DMDS added directly; conditions: M2014; MF + Met 40 mg/l; 36 hours at 30° C.
Excerpt: (§1) M2014 was transformed with plasmid pOM86 (FIG. 9) (SEQ ID NO:8) to yield a “Campbell in” strain. The “Campbell in” strain was then “Cambelled out” to yield a “Campbell out” strain named OM63.

C. glutamicum M2014 [2] = assay: Test tube growth in methionine-free medium with canola oil as DMDS delivery system; assay type: cell-based; conditions: 24 hours at 30° C.
Excerpt: (§2) Other possible delivery systems include synthetic oils, organic solvents, chloro-carbons, fluoro-carbons, or chloro-fluoro-carbons.

C. glutamicum M2014 [3] = assay: Test tube growth in methionine-free medium with Amberlite XAD4 as DMDS delivery system; conditions: M2014, XAD4
Experimental: (§3) To this end, test tube experiments using 5 ml of medium were performed on OM63 and M2014.
(§4) To each test tube 100 μl of a sterile suspension of XAD4 in water (50% v/v) was added.

[4] = system: C. glutamicum OM246C (ΔmetH, ΔmetE); assay type: cell-based; conditions: 24 hours at 30° C.
Excerpt: as §2

[5] = system: C. glutamicum OM174 (ΔmetF, ΔmetB, ΔmetY); conditions: Met 100 mg/ml, XAD4, 60 hours at 30° C.
Experimental: (§5) A test tube experiment was performed with M2014 derivatives that contain different combinations of deletions of metY, metB, and metF. […] The inoculum was approximately 5×10^3 cells per tube. Cells were grown at 30° C. in a platform shaker for 60 hours, and cell densities were measured at OD600.

[6] = system: C. glutamicum OM63 (ΔmetF); assay type: cell-based; conditions: MF + Met 40 mg/l, 36 hours at 30° C.
Excerpt: as §1

[7] = system: C. glutamicum OM101C (ΔmetF, ΔmetB); assay type: cell-based; conditions: met 100 mg/l, XAD4, 24 hours at 30° C.
Experimental: as §4

[8] = system: C. glutamicum OM246C (ΔmetE, ΔmetH); assay type: cell-based; conditions: met 100 mg/l, XAD4, 24 hours at 30° C.
Experimental: as §4

C. glutamicum M2014 [9] = assay: Test tube growth in methionine-free medium with mineral oil as DMDS delivery system; conditions: MF + Met 100 mg/l, no oil, 24 hours at 30° C.
Excerpt: as §2

[10] = system: C. glutamicum OM63 (ΔmetF)
Experimental: as §3, §4

[11] = system: C. glutamicum OM246C (ΔmetH, ΔmetE); conditions: OM246C, 24 hours at 30° C.
Excerpt: as §2

[12] = system: C. glutamicum OM158 (ΔmetF, ΔmetY); conditions: Met 100 mg/ml, XAD4, 60 hours at 30° C.
Experimental: as §5

[13] = system: C. glutamicum OM101 (ΔmetF, ΔmetB); conditions: Met 100 mg/ml, XAD4, 60 hours at 30° C.
Experimental: as §5

microorganisms = conditions: gaseous state; cited from earlier work

## CSCC[C@H](N)C(=O)O [Met, methionine, reference compound]
[1]
  Optical densities at 600 nm: 5.8
C. glutamicum M2014 [2]; MF + Met 100 mg/l, no oil
  Optical densities at 600 nm: 4.6 and 4.8
C. glutamicum M2014 [2]; MF + Met + Canola Oil
  Optical densities at 600 nm: 3.8 and 3.5
C. glutamicum M2014 [3]; Met 40 mg/l, 42 hours at 30° C.
  Optical densities at 600 nm: 7.1
C. glutamicum M2014 [3]; Met 100 mg/ml, 60 hours at 30° C.
  OD600: 2.2 and 2.3
C. glutamicum M2014 [3]; met 100 mg/l, 24 hours at 30° C.
  Optical densities at 600 nm: 4.4 and 4.7
[4]; MF + Met 100 mg/l, no oil
  Optical densities at 600 nm: 4.9 and 4.7
[4]; MF + Met + Canola Oil
  Optical densities at 600 nm: 3.7 and 3.0
[5]
  OD600: 1.5 and 1.2
[6]
  Optical densities at 600 nm: 5.2
[7]
  Optical densities at 600 nm: 1.9 and 2.1
[8]
  Optical densities at 600 nm: 3.9 and 4.3
C. glutamicum M2014 [9]
  Optical densities at 600 nm: 4.6 and 4.8
[10]; Met 40 mg/l, XAD4, 42 hours at 30° C.
  Optical densities at 600 nm: 4.4
[10]; Met 100 mg/ml, XAD4, 60 hours at 30° C.
  OD600: 1.6 and 1.9
[10]; met 100 mg/l, XAD4, 24 hours at 30° C.
  Optical densities at 600 nm: 2.4 and 3.0
[11]; MF + Met 100 mg/l, no oil
  Optical densities at 600 nm: 4.9 and 4.7
[11]; MF + Met + Mineral Oil
  Optical densities at 600 nm: 1.5 and 1.8
[12]
  OD600: 3.2 and 2.7
[13]
  OD600: 1.8

## C[Se][Se]C [DMDSe, dimethyldiselenide]
microorganisms
  toxicity to microorganisms: toxic to microorganisms in a gaseous state
